Data taken from patent publication US20250326748A1, “COMPOUNDS AND METHODS FOR MODULATING SPLICING” (REMIX THERAPEUTICS INC., priority 2022, published 2025).
Like-named read-outs stand apart in the source and are kept apart here.

How the values were obtained:
HTT mRNA = test: Splicing RT-qPCR assay, HTT canonical (CJ) and alternative (AJ) junction mRNA; type: cell-based, human; conditions: Homo sapiens; for IC50: canonical junction mRNA; for AC50: alternative junction mRNA, read-out: HTT AJ (AC50, increase in AJ mRNA)
Method: (§1) Compounds described herein were used to modulate RNA transcript abundance in cells. The expression of a target mRNA was measured by detecting the formation of an exon-exon junction in the canonical transcript (CJ). A compound mediated exon-inclusion event was detected by observing an increase in formation of a new junction with an alternative exon (AJ). Real-time qPCR assays were used to detect these splicing switches and interrogate the potency of various compounds towards different target genes. A high-throughput real time quantitative PCR (RT-qPCR) assay was developed to measure these two isoforms of the mRNA (CJ and AJ) for exemplary genes, such as HTT, SMN2, and MYB, together with a control housekeeping gene, GAPDH or GUSB or PPIA, used for normalization. Briefly, the A673 or K562 cell line was treated with various compounds described herein (e.g., compounds of Formula (D). After treatment, the levels of the HTT, MYB, or SMN2 mRNA targets were determined from each sample of cell lysate by cDNA synthesis followed by qPCR.
(§2) • Cells-to-CT 1-step kit: ThermoFisher A25602, Cells-to-CT lysis reagent: ThermoFisher 4391851C, TaqMan™ Fast Virus 1-Step Master Mix: ThermoFisher 4444436 • GAPDH: VIC-PL, ThermoFisher 4326317E (Assay: Hs99999905_m1)—used for K562/suspension cell lines • GUSB: VIC-PL, ThermoFisher 4326320E (Assay: Hs99999908_m1)—used for K562/suspension cell lines • PPIA: VIC-PL, ThermoFisher 4326316E (Assay: Hs99999904_m1)—used for A673/adherent cell lines
(§3) The A673 cell line was cultured in DMEM with 10% FBS. Cells were diluted with full growth media and plated in a 96-well plate (15,000 cells in 100 ul media per well). The plate was incubated at 37° C. with 5% CO2 for 24 hours to allow cells to adhere. An 11-point 3-fold serial dilution of the compounds was made in DMSO then diluted in media in an intermediate plate. Compounds were transferred from the intermediate plate to the cell plate with the top dose at a final concentration of 10 uM in the well. Final DMSO concentration was kept at or below 0.25%. The cell plate was returned to the incubator at 37° C. with 5% CO2 for an additional 24 hours.
(§4) The K562 cell line was cultured in IMDM with 10% FBS. For K562, cells were diluted with full growth media and plated in either a 96-well plate (50,000 cells in 50 uL media per well) or a 384-well plate (8,000-40,000 cells in 45 uL media per well). An 11-point 3-fold serial dilution of the compounds were made in DMSO then diluted in media in an intermediate plate. Compound was transferred from the intermediate plate to the cell plate with the top dose at a final concentration of 10 uM in the well. Final DMSO concentration was kept at or below 0.25%. Final volume was 100 uL for 96-well plate and 50 uL for 384-well plate. The cell plate was then placed in an incubator at 37° C. with 5% CO2 for 24 hours.
(§5) The cells were then gently washed with 50 uL-100 uL cold PBS before proceeding to addition of lysis buffer. 30 uL-50 μL of room temperature lysis buffer with DNAse I (and optionally RNAsin) was added to each well. Cells were shaken/mixed thoroughly at room temperature for 5-10 minutes for lysis to take place and then 3 uL-5 μL of room temperature stop solution was added and wells were shaken/mixed again. After 2-5 minutes, the cell lysate plate was transferred to ice for RT-qPCR reaction setup. The lysates could also be frozen at −80° C. for later use.
(§6) In some cases, a direct lysis buffer was used. An appropriate volume of 3× lysis buffer (10 mM Tris, 150 mM NaCl, 1.5%-2.5% Igepal and 0.1-1 U/uL RNAsin, pH 7.4) was directly added to either K562 or A673 cells in media and mixed by pipetting 3 times. The plates were then incubated at room temperature with shaking/rocking for 20-50 minutes to allow for lysis to take place. After this time, the cell lysate plate was transferred to ice to set up for the RT-qPCR reactions. The lysates could also be frozen at −80° C. for later use. […]

MYB mRNA = test: Splicing RT-qPCR assay, MYB canonical (CJ) and alternative (AJ) junction mRNA; type: cell-based, human; conditions: Homo sapiens; for IC50: canonical junction mRNA; for AC50: alternative junction mRNA, read-out: MYB AJ (AC50, increase in AJ mRNA)
Method: as §1, §2, §3, §4, §5, §6

SMN2 mRNA = test: Splicing RT-qPCR panel, SMN2 canonical junction (CJ) mRNA; type: cell-based, human; conditions: Homo sapiens, read-out: SMN2 CJ (decrease in CJ mRNA levels, IC50)
Method: as §1, §3, §4, §5
(§7) In some cases, a direct lysis buffer was used. An appropriate volume of 3× lysis buffer (10 mM Tris, 150 mM NaCl, 1.5%-2.5% Igepal and 0.1-1 U/uL RNAsin, pH 7.4) was directly added to either K562 or A673 cells in media and mixed by pipetting 3 times. The plates were then incubated at room temperature with shaking/rocking for 20-50 minutes to allow for lysis to take place. After this time, the cell lysate plate was transferred to ice to set up for the RT-qPCR reactions. The lysates could also be frozen at −80° C. for later use.
(§8) To set up 10 uL RT-qPCR reactions, cell lysates were transferred to 384-well qPCR plates containing the master mix according to the table below. The plates were sealed, gently vortexed, and spun down before the run. The volumes were adjusted accordingly in some instances where the reaction was carried in 20 μL. The table below summarizes the components of the RT-qPCR reactions:
(§9) The RT-qPCR reaction was performed using a QuantStudio (ThermoFisher) under the following fast cycling conditions. […]

Target C mRNA = test: Splicing RT-qPCR panel, Target C canonical junction (CJ) mRNA; type: cell-based, human; conditions: Homo sapiens, read-out: Target C CJ (decrease in CJ mRNA levels, IC50)
Method: as §1, §3, §4, §5, §7, §8, §9

K562 cells = test: Cell viability, Cell Titer Glo 2.0 assay, K562; conditions: 72 hours
[1] = 24 h, RT-qPCR, A673 or K562 cells, 24 hours treatment, read-out: HTT CJ (IC50, decrease in CJ mRNA)
[2] = qPCR panel, read-out: HTT CJ (decrease in CJ mRNA levels, IC50)
[3] = RT-qPCR, A673 or K562 cells, 24 hours treatment
[4] = qPCR panel, read-out: MYB CJ (decrease in CJ mRNA levels, IC50)
[5] = RT-qPCR, A673 or K562 cells, 24 hours treatment, read-out: MYB CJ (IC50, decrease in CJ mRNA)

**Q.** Which results are given for C[C@H]1CN(c2cnc3nc(-c4cc5cn(C)nc5cc4O)cc(Cl)c3c2)CC2(CC2)N1 [Compound 379]?
**A.** IC50 (HTT mRNA; [1]): 1000 to 10000 nM; IC50 (HTT mRNA; [2]): 1000 to 10000 nM; AC50 (HTT mRNA; [3]): 1000 to 10000 nM; IC50 (MYB mRNA; [4]): 100 to 1000 nM; AC50 (MYB mRNA; [3]): 100 to 1000 nM; IC50 (MYB mRNA; [5]): 100 to 1000 nM; IC50 (SMN2 mRNA): < 100 nM; IC50 (Target C mRNA): > 10000 nM; Effect on Cell Viability, K562 (K562 cells): B (100-1000 nM)

**Q.** How did the IC50 (HTT mRNA; [1]) turn out when Cc1c(O)c(-c2ccc3c(Cl)c(N4C[C@@H](C)N[C@@H](C)C4)cnc3n2)cc2cn(C)nc12 [Compound 390] was run?
**A.** 1000 to 10000 nM

**Q.** And the IC50 (HTT mRNA; [2])?
**A.** 1000 to 10000 nM

**Q.** What about the AC50 (HTT mRNA; [3]) of the same compound?
**A.** > 10000 nM

**Q.** What about the IC50 (MYB mRNA; [4]) of the same compound?
**A.** 100 to 1000 nM

**Q.** And the AC50 (MYB mRNA; [3])?
**A.** < 100 nM

**Q.** What about the IC50 (MYB mRNA; [5]) of the same compound?
**A.** < 100 nM

**Q.** And the IC50 (SMN2 mRNA)?
**A.** < 100 nM

**Q.** And the IC50 (Target C mRNA)?
**A.** 1000 to 10000 nM

**Q.** And the “Effect on Cell Viability, K562” value (K562 cells)?
**A.** A (<100 nM)

**Q.** How did the IC50 (HTT mRNA; [1]) turn out when Cc1c(O)c(-c2ccc3c(Cl)c(N4C[C@H](C)N[C@@H](C)C4)cnc3n2)cc2cn(C)nc12 [Compound 394] was run?
**A.** 100 to 1000 nM

**Q.** What about the IC50 (HTT mRNA; [2]) of the same compound?
**A.** 100 to 1000 nM

**Q.** And the AC50 (HTT mRNA; [3])?
**A.** 100 to 1000 nM

**Q.** And the IC50 (MYB mRNA; [4])?
**A.** < 100 nM

**Q.** What about the AC50 (MYB mRNA; [3]) of the same compound?
**A.** < 100 nM

**Q.** And the IC50 (MYB mRNA; [5])?
**A.** < 100 nM

**Q.** And the IC50 (SMN2 mRNA)?
**A.** < 100 nM

**Q.** What about the IC50 (Target C mRNA) of the same compound?
**A.** 1000 to 10000 nM

**Q.** What about the “Effect on Cell Viability, K562” value (K562 cells) of the same compound?
**A.** B (100-1000 nM)

**Q.** Which results are given for C[C@H]1CN(c2cnc3nc(-c4cc(F)c5nn(C)cc5c4)cc(Cl)c3c2)CC2(CC2)N1 [Compound 396]?
**A.** IC50 (HTT mRNA; [1]): 1000 to 10000 nM; IC50 (HTT mRNA; [2]): 1000 to 10000 nM; AC50 (HTT mRNA; [3]): 1000 to 10000 nM; IC50 (MYB mRNA; [4]): 100 to 1000 nM; AC50 (MYB mRNA; [3]): 100 to 1000 nM; IC50 (MYB mRNA; [5]): 100 to 1000 nM; IC50 (SMN2 mRNA): < 100 nM; IC50 (Target C mRNA): 1000 to 10000 nM; Effect on Cell Viability, K562 (K562 cells): C (1000-9999 nM)

**Q.** For C[C@@H]1CN(c2cnc3nc(-c4cc(F)c5nn(C)cc5c4)cc(Cl)c3c2)CC2(CC2)N1 [Compound 397], which IC50 (HTT mRNA; [1]) is on record?
**A.** 1000 to 10000 nM

**Q.** What about the IC50 (HTT mRNA; [2]) of the same compound?
**A.** 1000 to 10000 nM

**Q.** And the AC50 (HTT mRNA; [3])?
**A.** > 10000 nM

**Q.** What about the IC50 (MYB mRNA; [4]) of the same compound?
**A.** 100 to 1000 nM

**Q.** And the AC50 (MYB mRNA; [3])?
**A.** 1000 to 10000 nM

**Q.** And the IC50 (MYB mRNA; [5])?
**A.** 100 to 1000 nM

**Q.** And the IC50 (SMN2 mRNA)?
**A.** < 100 nM

**Q.** What about the IC50 (Target C mRNA) of the same compound?
**A.** > 10000 nM

**Q.** What about the “Effect on Cell Viability, K562” value (K562 cells) of the same compound?
**A.** C (1000-9999 nM)

**Q.** What does the source list for Cc1c(O)c(-c2cc(Cl)c3cc(N4C[C@H](C)NC5(CC5)C4)cnc3n2)cc2cn(C)nc12 [Compound 398]?
**A.** IC50 (HTT mRNA; [1]): 100 to 1000 nM; IC50 (HTT mRNA; [2]): 100 to 1000 nM; AC50 (HTT mRNA; [3]): 100 to 1000 nM; IC50 (MYB mRNA; [4]): < 100 nM; AC50 (MYB mRNA; [3]): < 100 nM; IC50 (MYB mRNA; [5]): < 100 nM; IC50 (SMN2 mRNA): < 100 nM; IC50 (Target C mRNA): > 10000 nM; Effect on Cell Viability, K562 (K562 cells): B (100-1000 nM)

**Q.** How did the IC50 (HTT mRNA; [1]) turn out when Cc1c(O)c(-c2cc(Cl)c3cc(N4C[C@@H](C)NC5(CC5)C4)cnc3n2)cc2cn(C)nc12 [Compound 399] was run?
**A.** 1000 to 10000 nM

**Q.** What about the IC50 (HTT mRNA; [2]) of the same compound?
**A.** 1000 to 10000 nM

**Q.** And the AC50 (HTT mRNA; [3])?
**A.** > 10000 nM

**Q.** What about the IC50 (MYB mRNA; [4]) of the same compound?
**A.** < 100 nM

**Q.** And the AC50 (MYB mRNA; [3])?
**A.** < 100 nM

**Q.** What about the IC50 (MYB mRNA; [5]) of the same compound?
**A.** < 100 nM

**Q.** And the IC50 (SMN2 mRNA)?
**A.** < 100 nM

**Q.** And the IC50 (Target C mRNA)?
**A.** > 10000 nM

**Q.** And the “Effect on Cell Viability, K562” value (K562 cells)?
**A.** B (100-1000 nM)
